# Test: gradient 5% acetonitrile 3 min, to 50% in 2 min, to 85% in 15 min, held 3 min, 100 µL/min
# Conditions: column: Zorbax Extend-C18 2.1 x 50 mm; eluents: water / acetonitrile, 0.1% formic acid
# Summary of the method: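 Retention times of pure standards were taken from adduct peaks that were selected by computer and manually inspected. Over 3 months, mixtures of ~100 molecules were run by HPLC–quadrupole time-of-flight mass spectrometry in positive and negative ionization mode. The Zorbax Extend-C18 column (2.1 × 50 mm, 1.8 μm) ran at 100 μL/min in water and acetonitrile, each containing 0.1% formic acid, with 40 μL dead volume and 900 μL dwell volume.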
row,SMILES,RP-LC retention time
1,Clc1ccc(OCc2nnc3sc(-c4ccc5ccccc5n4)nn23)cc1,1210 s
2,CC1CCN(C(=O)c2ccccc2OCC2CCCN(C3CCCC3)C2)CC1 (configuration not stated),696 s
3,Cc1sc(NC(=O)CCCc2nc(-c3ccccc3)no2)nc1-c1ccc(Cl)cc1,1190 s
4,COc1ccc(-c2noc(Cc3nnc(-c4cccc(C)c4)o3)n2)cc1F,1040 s
5,O=C(CN1CCC(COCc2ccccc2)CC1)NCc1ccco1,571 s
6,O=C(Cn1nc(C(=O)N2CCCC2)c2ccccc21)N1CCN(C2CCCCC2)CC1,597 s
7,Cc1nnc(-c2ccc3ccn(CC(=O)Nc4ccc(F)cc4)c3c2)o1,795 s
8,CCn1nccc1C(=O)Nc1ccc2sc(C)nc2c1,697 s
9,CCCNC(=O)C1CCN(c2nc3ccc(-c4cccs4)nc3s2)CC1,872 s
10,CC(NC(=O)C1CCN(c2cncnc2N2CCOCC2)CC1)c1ccccn1 (configuration not stated),547 s
11,CCc1ccc(NC(=O)Cn2nc(N3CCCC3)c3ccccc3c2=O)cc1,1030 s
12,O=S(=O)(c1cccc(F)c1)N1CCC(c2noc(-c3ccc(F)cc3)n2)CC1,1110 s
13,O=C(NCc1cccc2ccccc12)NCC1CCN(C(=O)Oc2ccccc2)CC1,866 s
14,COc1ccc(N2CCN(C(=O)C3CCCN(c4ccc(-c5ccccc5)nn4)C3)CC2)cc1 (configuration not stated),711 s
15,CCOc1cc(=O)n2c(c1C(=O)NC(C)C)CCCCC2,623 s
16,CCN1C(=O)COc2ccc(-c3nc(NC(=O)C4CCCO4)sc3C)cc21 (configuration not stated),844 s
17,CCn1ccc2cc(S(=O)(=O)N3CCCC(C(=O)N4CCN(C)CC4)C3)ccc21 (configuration not stated),646 s
18,O=C(c1ccc2nccnc2c1)N1CCC(c2nnc(C(F)(F)F)o2)CC1,653 s
19,O=C(Nc1cnn(-c2ncncc2N2CCCCC2)c1)C1CC1,604 s
20,O=C(Nc1ccc(Br)cc1F)C1CCN(C(=O)c2cccn2-c2cccnc2)CC1,782 s

row,SMILES,RP-LC retention time
1,COc1cccc(CNC(=O)NCCC2CCN(S(=O)(=O)c3ccc(F)cc3)CC2)c1,842 s
2,CCOC(=O)c1c(C)[nH]c(C(=O)N2CCCC(C(=O)NCCC3=CCCCC3)C2)c1C (configuration not stated),893 s
3,Cc1cccc(C(=O)NC2CCN(c3cc(-c4cccs4)[nH]n3)C2)c1 (configuration not stated),741 s
4,CCc1ccc(C2=C(C)C(N3CCCN(C(=O)C4CCOC4)CC3)=NS2(=O)=O)cc1 (configuration not stated),749 s
5,Cc1ccsc1C(=O)N1CCN(c2cc(-c3ccccc3)[nH]n2)CC1,744 s
6,CCn1cc(CCNC(=O)c2ccccc2C(F)(F)F)c2cccnc21,740 s
7,Cc1ccc(S(=O)(=O)N2CC(=O)N(c3cccc(F)c3)C(C)(C(=O)NCCC(C)C)C2)cc1 (configuration not stated),1020 s
8,CN(C(=O)Cn1c(=O)oc2ccc(C(=O)N3CCCC3)cc21)C1CCCCC1,761 s
9,O=C(O)[C@H](CC(=O)N1C[C@H]2CCCC[C@H]2C1)Cc1ccccc1,915 s
10,Cc1ccc(NS(=O)(=O)c2ccc(-c3c(C)noc3C)cc2)c(C)c1,985 s
11,COc1ccc(-c2noc(-c3nnn4c3COC(c3ccc(Cl)cc3)C4)n2)c(OC)c1 (configuration not stated),1140 s
12,COc1ccc(C(=O)Nc2nc(-c3ccc4c(c3)NC(=O)C(C)O4)cs2)cc1OC (configuration not stated),864 s
13,COc1ccc(-c2nc3cnccn3c2NCCC(=O)N2CCN(C(C)C)CC2)cc1,565 s
14,Cc1ccn2c(NC(=O)CC(C)(C)C)c(-c3ccccc3)nc2c1,666 s
15,Cc1ccsc1C(=O)N1CCN(c2ccc(=O)n(-c3ccc(Cl)cc3)n2)CC1,878 s
16,CCn1c(N2CCCC(C(=O)NCc3ccc(OC)cc3OC)C2)cc(=O)n(C)c1=O (configuration not stated),752 s
17,Cc1ccc(-c2cc3c4nnc(SCC(=O)Nc5ccc(F)cc5)n4ccn3n2)cc1C,931 s
18,CCN(CC)c1nc2cc(C(=O)N3CCN(c4ccccn4)CC3)ccc2c(=O)n1-c1ccccc1,693 s
19,Fc1ccc(Nc2c(-c3ccc(Br)cc3)nc3cnccn23)cc1,980 s

# Second part, the compound after the results:
row,RP-LC retention time,SMILES
1,832 s,Cc1cc(C)n(-c2ccnc(N3CCC(C(=O)NCc4ccccc4)CC3)n2)n1
2,827 s,COc1ccccc1-c1noc(C2CCCN2C(=O)Nc2ccccc2C)n1 (configuration not stated)
3,1040 s,COc1cccc(-c2csc(-c3nnn(-c4ccccc4)c3N)n2)c1
4,1190 s,CSc1ccc(CNC(=O)C2CCCN(c3nc4c(s3)c(C)nn4-c3ccc(F)cc3)C2)cc1 (configuration not stated)
5,605 s,Cc1noc([C@@H]2CN(Cc3ccc(F)c(Cl)c3)C[C@H]2CO)n1
6,688 s,O=C(Nc1ccc2c(c1)OCO2)C1COCC(=O)N1Cc1ccccc1 (configuration not stated)
7,893 s,Cc1ccc2c(c1)N(S(C)(=O)=O)CCC(C(=O)Nc1cccc(OC(C)C)c1)O2 (configuration not stated)
8,734 s,O=C(NCc1cccs1)C1CCCN(S(=O)(=O)c2c[nH]c(C(=O)N3CCCC3)c2)C1 (configuration not stated)
9,669 s,Cc1ccc(F)c2c(=O)c3c([nH]c12)CCN(CC(=O)NC1CCCC1)C3
10,907 s,CSc1ccc(Cc2nnc(NC(=O)c3cccc(C(F)(F)F)c3)o2)cc1
11,916 s,CCC(C(=O)Nc1cc(-c2cn3nc(OC)ccc3n2)ccc1F)c1ccccc1 (configuration not stated)
12,1030 s,CC1CCN(C(=O)c2cn(-c3cc(N4CCC(C)CC4)ncn3)cn2)CC1
13,816 s,COc1ccc(Cl)cc1NC(=O)N(C)CC1CCOCC1
14,765 s,NC(=O)C1CCN(c2cc(-c3nc(-c4ccccc4)no3)c3ccccc3n2)CC1
15,568 s,CCN(CC)CCCC(C)Nc1nc(C)cc(Nc2ccc3nc(C)cc(N)c3c2)n1 (configuration not stated)
16,619 s,CC(C)n1cnc2cc(CNC(=O)c3ccc(F)cc3Cl)ccc21
17,856 s,CCOc1ccc(-c2noc(CSc3nccn3-c3ccccc3)n2)cc1OC
18,674 s,Cc1[nH]c(C(=O)N2CCC(CC(=O)NCCc3c[nH]c4ccccc34)CC2)c(C)c1C
19,856 s,CC(C)n1ncc(NC(=O)Cc2ccc(Cl)cc2)c(N2CCOCC2)c1=O
20,669 s,Cc1nn(-c2ccccc2)cc1C(=O)N1CCC(CC(=O)N2CCOCC2)CC1
21,1060 s,CCC(C)n1c(=O)c2ccccc2n(Cc2nc(-c3ccc(OC)c(OC)c3)no2)c1=O (configuration not stated)
22,1000 s,O=C(Nc1ccc2c(c1)OCO2)C(=O)c1cn(CC(=O)N2CCCCC2)c2ccccc12
23,703 s,CC1CCN(C(=O)c2ccc3c(c2)N(CC(=O)N2CCCC2)C(=O)CO3)CC1
24,745 s,COCCN1CCn2cc(S(=O)(=O)Nc3ccc(C)c(C)c3)cc2C1=O

row,RP-LC retention time,SMILES
1,911 s,O=C(NCCC1=CCCCC1)C1CCN(C(=O)c2ncn3c2COC(c2ccc(Cl)cc2)C3)CC1 (configuration not stated)
2,772 s,COc1cccc2sc(N(C)CC(=O)NCCc3cccs3)nc12
3,595 s,COc1ccc(-n2c(CN3CCN(C(=O)NC(C)C)CC3)nc3cccnc32)cc1
4,1030 s,Cc1ccc(S(=O)(=O)n2nc(OC(=O)c3ccc(Cl)cc3Cl)cc2N)cc1
5,798 s,Cc1ccc(C(=O)NC2CCN(c3cc(-c4cccs4)[nH]n3)C2)cc1F (configuration not stated)
6,636 s,CO/N=C1/CN(c2nc3c(cc2F)c(=O)c(C(=O)O)cn3C2CC2)CC1CN (configuration not stated)
7,1130 s,CCc1ccccc1S(=O)(=O)N1CCC2(CC1)C(=O)N(CC)c1ccccc12
8,806 s,O=C(Cc1nnc(-c2ccc3ncccc3c2)o1)Nc1ccc(OC(F)(F)F)cc1
9,1170 s,CCc1nnc(-c2ccc3ccn(CC(=O)NCCc4sccc4C)c3c2)o1
10,898 s,CCN1C(=O)c2cccnc2Sc2cc(NC(=O)c3cc(C)ccc3C)ccc21
11,818 s,O=c1c2cc(-c3ccccc3)nn2ccn1Cc1noc(CN2CCc3ccccc3C2)n1
12,649 s,O=C(NCC1CCCO1)C1CCN(c2nnc(-c3ccccc3)o2)CC1 (configuration not stated)
13,861 s,CCN1C(=O)c2cccc3c(NC(=O)CSc4ccc(Cl)cc4)ccc1c23
14,882 s,CCC(C)NC(=O)Cn1c2ccccc2c2ncn(Cc3nc(-c4ccccc4)no3)c(=O)c21 (configuration not stated)
15,567 s,CCN1CCN(C(=O)C2CCCN(c3nnc4ccc(C(F)(F)F)cn34)C2)CC1 (configuration not stated)
16,1340 s,COc1ccc(-c2nc(-c3ccc(S(=O)(=O)N4CCC(C)CC4)cc3)no2)cc1
17,690 s,Cc1cc(C)cc(NC(=O)NC2CCN(c3cc(N4CCCC4)cnn3)C2)c1 (configuration not stated)
18,686 s,Cc1cc(C)n2nc(SCC(=O)Nc3ccccc3[N+](=O)[O-])nc2n1
19,714 s,Cc1cccc(NC(=O)Nc2cccc(-c3ccc(N4CCOCC4)nn3)c2)c1
20,617 s,O=C(CC1CCCN(c2cn[nH]c(=O)c2)C1)N1CCSCC1 (configuration not stated)
21,531 s,CN1C(=O)[C@H]2CN(Cc3cccc(C#N)c3)C[C@H]2C1=O
22,778 s,COc1cccc(CNC(=O)Cn2c(=O)c3c(C(=O)N4CCCCC4)cc(C)nc3n(C)c2=O)c1
23,1190 s,CCOc1ccccc1CNC(=O)C1CCCN(c2nccnc2Sc2ccc(C)cc2)C1 (configuration not stated)
24,661 s,CC1CCN(C2=NCCN2C(=O)c2ccc(F)cc2)CC1
